# Laboratory results published in patent US9486471B2, “Combination therapy for the treatment of cancer” (McMaster University, priority 2012, dated 2016).
# How the values were obtained:
# AML patient blast cells = assay: Methylcellulose colony-forming assay, AML patient blast-CFU; assay type: cell-based, human
# Experimental: AML/HPSC Cell Culture. AML cell lines, namely, OCI-AML2 (M4), OCI-AML3 (M4), HL-60 (M2) and MV-4-11(M5) were cultured in RPMI (Gibco) supplemented with 5% heated-inactivated FBS (HyClone). For DR agonist studies with R(+)-7-Hydroxy-DPAT hydrobromide (Sigma), serum-free conditions were employed instead due to the prevalence of dopamine in FBS (Little et al., 2002). AML patient blasts were cultured in IMDM supplemented with 5% heated inactivated FBS (HyClone), 5 ng/mL IL3 (R&D systems), 5×10^−5 M β-mercaptoethanol (Sigma) and BIT (StemCell Technologies). HSC media contained IMDM supplemented with 1% BSA (Sigma), 100 ng/mL SCF (R&D systems), 100 ng/mL Flt-3L (R&D systems) and 20 ng/mL TPO (R&D systems). Patient HSPC and AML samples were treated with compound or DMSO-vehicle (0.1%) for 24 h prior to CFU plating or xenotransplantation studies.
# Methylcellulose Colony-Forming Assay. AML patient or CB lin− cells were cultured 24 hours in the presence of compound or DMSO-vehicle (0.1%) control. AML cells were plated at 50 000 cells/mL in Methocult GF H4434 (Stem Cell Technologies). CB lin− cells were plated at 1000 cells/mL in Methocult GF H4434 (Stem Cell Technologies). Colonies were scored after 14 days of culture using standard morphological criteria.
# [1] = tested on: AML cell lines HL-60, OCI-AML2 and OCI-AML3
# Experimental: All three lines are leukemic cell lines. HL-60 was derived from promyelocytic AML whereas MV 4-11 and OCI-AML3 are representative of AML. Each compound was incubated with the cells for 72 h. The control was DMSO (ie the vehicle used for the compound) for 72 h. Each condition had three replicates.
# A series of dopamine receptor agonists, D3-antagonists, DR1 & 5-antagonists and multi-receptor antagonists were tested for cytotoxicity against three AML cell lines HL-60, OCI-AML2 and OCI-AML3. Testing was performed as set out in Example 1.
# [2] = tested on: normal HSCs and progenitors; assay: Methocellulose colony formation of normal HSCs (Example 2); assay type: cell-based, human; conditions: 10 μM
# Experimental: Normal HSCs and progenitors were sourced from either mobilized peripheral blood or umbilical cord blood of health patients. Primary AML cells were taken from patients diagnosed with AML. Both normal HSCs and primary AML cells were cultured under standard in vitro methocellulose assay conditions (see http://www.stemcell.com/en/Products/All-Products/MethoCult-H4434-Classic.aspx as well as Clinton Campbell et al. The human stem cell hierarchy is defined by a functional dependence on Mcl-1 for self-renewal capacity. Blood 116 (9) 1433-1442 (Jun. 4, 2010), hereby incorporated by reference) for at least 14 days before the number of colonies were recorded.
# [3] = tested on: p53 and p21 in neoplastic hPSCs; assay: p53 and p21 accumulation in neoplastic hPSCs; assay type: cell-based, human; conditions: 24 h; 10 μM etoposide, 10 μM thioridazine, BMP4
# Source text: Antibodies. Antibodies used for immunocytochemistry were the following: Oct3/4 (BD Trunsduction Laboratories, cat#611203), Sox2 (R&D, cat#AF2018). To detect human hematopoietic cells, Pacific Blue-, PE-, APC- or FITC labeled anti-human CD45 was used (BD Biosciences). FITC anti-CD33, PE anti-CD13, FITC anti-CD41a, FITC anti-HLA DR, and PE anti-CD19 antibodies were obtained from BD Pharmingen. PE anti-CD14, PE anti-CD15 and PE anti-GlyA were acquired from Immunotech Beckman Coulter. To determine pluripotency, PE anti-SSEA3 (BD Biosciences) and PE- or AlexaFluor488 anti-Oct4 (BD Biosciences). Rabbit anti-human dopamine receptor antibodies; DRD1 (Cat#324390), DRD2 (Cat#324393), DRD3 (Cat#324402), DRD4 (Cat#324405) and DRD5 (Cat#324408) were sourced from EMD Chemical. Anti-rabbit Alexa-Fluor-488 (Molecular Probes) was used as the secondary antibody. Primary anti-p53 (Cat#2527) and anti-p21 (Cat#2947) rabbit IgG sourced from Cell Signaling Technology were used to stain fixed and permeabilized cells. Anti-rabbit alexa-Fluor-546 (Molecular Probes) was used as the secondary antibody.
# [4] = tested on: v1H9-Oct4-GFP neoplastic hPSC; assay: Chemical screening of neoplastic hPSC reporter line (GFP / Hoechst, loss of pluripotency); assay type: cell-based, human
# Experimental: In Vitro Culture Platform for Normal and Neoplastic hPSCs. Chemical screens involved v1H9-Oct4-GFP cells seeded at 5,000 cells per well in mouse embryonic fibroblast conditioned media (MEFCM) supplemented with 8 ng/ml bFGF. 24 hours later the media was exchanged for MEFCM with compounds at 10 μM and 0.1% DMSO, 0.1% DMSO (−BMP4) or 100 ng/ml of BMP4 and 0.1% DMSO (+BMP4) for 48 hours before being exchanged with fresh media with compound for a further 24 h (total compound treatment time 72 h) prior to being fixed and prepared for automated imaging and plate reader analysis. Confluent H9 & fibroblast-derived iPSC were seeded at 10,000 cells per well in MEFCM supplemented with 8 ng/ml bFGF. 24 hours later the cells were treated with compounds at 10 μM and 0.1% DMSO, 0.1% DMSO (−BMP4) or 100 ng/ml of BMP4 and 0.1% DMSO (+BMP4). Fresh MEFCM supplemented with compounds was exchanged daily for 5 days. On day 5, hPSC's were fixed and prepared for automated imaging and plate reader analysis. See supplementary experimental procedures for further details.
# Imaging Neoplastic hPSC. Cells were fixed in 2% paraformaldehyde and stained with 10 μg/mL Hoechst 33342 (Invitrogen) with a Combi Multidrop Dispenser (Thermo). For experiments that involved Oct4 immunocytochemistry, a monoclonal antibody for Oct4 (BD) was used along with an Alexa-Fluor-647 secondary (Invitrogen). Immunocytochemical staining was performed by a Janus automated liquid handler (Perkin Elmer). Images were acquired at 10× N.A with an Arrayscan HCS VTI Reader (Cellomics) by means of epi-fluorescence illumination and standard filter sets.
# Image Analysis. Image analysis was performed using custom scripts in Acapella software (Perkin Elmer). Nuclear objects were segmented from the Hoechst signal. For neoplastic cell lines, object intensity analysis was performed on GFP positive cells only. For normal cell lines, the fraction of Alexa-Fluor-647-positive cells was quantified. Images and well-level data were stored and analysed in a Columbus Database (Perkin Elmer) and further data analysis, compounds registration and hit identification in ActivityBase (IDBS).
# These Collections have been previously scrutinized in numerous other mammalian cell lines (Diallo et al., 2010; Shoemaker, 2006).
smiles,measurement,setting,value
"CSc1ccc2c(c1)N(CCC1CCCCN1C)c1ccccc1S2 (racemic) [thioridazine, 10-{2-[(RS)-1-Methylpiperidin-2-yl]ethyl}-2-methylsulfanylphenothiazine]","blast-CFU generation, DR+ subfraction of patient AML","AML patient blast cells; 10 μM, 24 h",reduction
same,"blast-CFU generation, DR- subfraction of patient AML","AML patient blast cells; 10 μM, 24 h",no reduction
same,AML proliferation/clonogenic capacity,"AML patient blast cells; 24 h treatment, colonies scored after 14 days",reduction
same,AML-blast CFU formation,"AML patient blast cells; dose not stated in the sentence (0.1, 1, 10 μM tested)",reduced
same,cytotoxicity of AML cell lines,[1],significant effect
same,cell count,"[1]; 72 h, relative to control",eradicate the AML cell lines
same,cell pellets of CFU colonies,[2]; HSCs,pelleted cells are still visible
same,colony forming potential of normal HSCs,"[2]; DMSO control about 100, at least 14 days",about 66 total colonies
same,accumulation of cell stress marker p53,[3],no accumulation
same,accumulation of p21,[3],no accumulation
same,hit in extended screen (loss of pluripotency),"[4]; 2446 compound screen, reduced mean GFP intensity and cell count",hits
same,activity at 10 µM,"[4]; Homo sapiens, 10 μM, 590 compound screen, read-out: Hoechst % residual activity (% RA)",> 30%
